Experimental findings from EP2698383B1, “Detection of synthetic Cannabinoids” (priority 2012, dated 2014) are described below.

Assay type in all cases: binding, sheep
One test concerns Antibody 4.2. As to the method: (§1) The wells of an enhanced binding 96 well polystyrene microtiter plate were coated with IgG fraction of antiserum (Antibody 4.1 or antibody 4.2) raised to Immunogen 4 in separate host animals, diluted in 10mM Tris, pH8.5 (125µl/well). The appropriate antibody coating dilution was determined using standard ELISA checkerboard techniques. The plate was incubated overnight at 4°C, washed 4 times over 10 minutes with Tris buffered saline containing Tween 20 (TBST) and tapped dry.
(§2) Standard solutions of CP47,497 -C8 were prepared in TBST at 0, 2.5, 5, 10, 20, 40, 80 and 160ng/ml for Antibody 4.1, and at 0, 5, 10, 20, 40, 80, 160 and 320ng/ml for Antibody 4.2, and 50µl of each was added to the appropriate wells. 75µl of conjugate (Hapten 1-HRP - tracer 1 - see Figure 4) diluted in Tris buffer (pH 7.2) containing EDTA, D-mannitol, sucrose, thimerosal and BSA, was added to each of the wells. The appropriate dilution of conjugate was also determined using standard ELISA checkerboard techniques. The plate was incubated at 25°C for 1 hour. Excess unbound conjugate was removed by washing 6 times over a 10 minute period with TBST. 125µl of tetramethylbenzidine (TMB) substrate solution was added to each well of the plate that was then incubated for 20 minutes in the dark at room temperature. The reaction was terminated by addition of 125µl 0.2M H2SO4 to each well. The absorbance was then measured at 450nm using a microtiter plate reader.
(§3) In order to determine the specificity of the competitive ELISAs, standard solutions of a range of structurally similar compounds were prepared in TBST. Using the calibration curves generated and employing a single level of cross reactants (100ng/ml), these were used to determine the cross-reactivity of each immunoassay with these substances. The results of this study are presented in Table 2, as %B/B0, employing antisera raised against Immunogen 2b (C8), tracer 1 (C7) and (±)-CP-47,497 (C8 homologue) as standard.

For another test, the system named is Antibody 4.1. As to the method: as §1, §2, §3
The subject of test [1] is antibodies raised against immunogen 2b. As to the kind of experiment: Competitive ELISA cross-reactivity, for both antibodies. The following applies: cross reactants 100ng/ml; tracer 1 (C7); (±)-CP-47,497 (C8 homologue) as standard. The method, then: as §1, §2, §3
Background: In an ELISA, binding on a coated surface is turned into a signal by an enzyme label.

The mark [2] stands for this setting: Cross-reactants at 100ng/ml, tracer 1 (C7), (±)-CP-47,497 (C8 homologue) as standard.
Where [3] appears, read: standard 5 ng/ml, tracer 1 (C7).
The mark [4] stands for this setting: standard 10 ng/ml, tracer 1 (C7).
Setting [5] is: standard 20 ng/ml, tracer 1 (C7).
[6] abbreviates: standard 40 ng/ml, tracer 1 (C7).
Where [7] appears, read: standard 80 ng/ml, tracer 1 (C7).
Where [8] appears, read: standard 160 ng/ml, tracer 1 (C7).
Setting [9] is: standard concentration which produces 50% B/B0, tracer 1 (C7).

Where two headings read alike, the source gives them in different places.

As to `CCCCCCC(C)(C)c1ccc([C@@H]2C[C@H](O)CC[C@H]2CCCO)c(O)c1` (racemic) [(+-)-CP 55,940], the “%B/B0” value in the test with Antibody 4.2 (setting [2]) was 97.34%; in the test with Antibody 4.1 (setting [2]) it was 93.65%; in test [1], “greater than 80%”.
For `CCCCCCC(C)(C)c1ccc([C@H]2CCC[C@@H](O)C2)c(O)c1` (racemic) [(±)-CP-47,497 (C7 homologue)], in that order: 48.85%, 37.14% and “less than 50%”.
The matching figures for `CCCCCCC(C)(C)C1=CC(=O)C(C2CCCC(O)C2)=CC1=O` (racemic) [(±)-CP-47,497 (C7 para quinone analogue)]: 89.82%, 82.66% and “greater than 80%”.
On to `CCCCCCCC(C)(C)c1ccc(C2CCCC(O)C2)c(O)c1` (racemic) [(±)-CP-47,497 (C8 homologue)], for which the “%B/B0” value with Antibody 4.2 (setting [2]) was 49.65%; in the test on Antibody 4.2 (setting [3]) it was 88%; in the test on Antibody 4.2 (setting [4]), 82%; with Antibody 4.2 (setting [5]), 72%; in the test with Antibody 4.2 (setting [6]) it was 63%; in the test with Antibody 4.2 (setting [7]) it was 52%. For the same molecule, the “%B/B0” value is on record as 44% in the test with Antibody 4.2 (setting [8]); 37% in the test with Antibody 4.2 (standard 320 ng/ml, tracer 1 (C7)); 36.52% with Antibody 4.1 (setting [2]); 82% in the test with Antibody 4.1 (standard 2.5 ng/ml, tracer 1 (C7)); 72% with Antibody 4.1 (setting [3]); 60% in the test with Antibody 4.1 (setting [4]). Also, the “%B/B0” value is on record as 51% in the test with Antibody 4.1 (setting [5]); 43% with Antibody 4.1 (setting [6]); 38% in the test on Antibody 4.1 (setting [7]); 34% in the test on Antibody 4.1 (setting [8]); “less than 50%” in test [1]. The values for the IC50 in the test on Antibody 4.2 (setting [9]) and with Antibody 4.1 (setting [9]) were 0.095992 mg/L and 0.020922 mg/L, respectively.
For the molecule `CCCCCc1cc(O)c2c(c1)OC(C)(C)[C@@H]1CCC(C)=C[C@@H]21` [Delta 9 THC], the figures for the “%B/B0” value in the test with Antibody 4.2 (setting [2]) and in the test on Antibody 4.1 (setting [2]) were 94.09% and 96.44%, respectively.
For `CCCCCCC(C)(C)c1cc(O)c2c(c1)OC(C)(C)[C@@H]1CC=C(CO)C[C@@H]21` [HU-210], the “%B/B0” value in the test with Antibody 4.2 (setting [2]) was 92.94%; in the test with Antibody 4.1 (setting [2]), 96.01%; in test [1] it was “greater than 80%”.
The matching figures for `CCCCCCC(C)(C)c1cc(O)c2c(c1)OC(C)(C)[C@H]1CC=C(CO)C[C@H]21` [HU-211 (Dexanabinol), Dexanabinol]: 95.84%, 96.76% and “greater than 80%”.
For `CCCCCCC(C)(C)c1cc(OC)c([C@@H]2C=C(CO)[C@@H]3C[C@H]2C3(C)C)c(OC)c1` [HU-308], the “%B/B0” value in the test on Antibody 4.2 (setting [2]) is 94.81%; with Antibody 4.1 (setting [2]) it was 98.37%.
Regarding (+)-CP 55,940, the “%B/B0” value with Antibody 4.2 is recorded as 96.91%; in the test with Antibody 4.1 it was 95.98%; in test [1], “greater than 80%”.
Take (-)-11-nor-9-Carboxy-delta9-THC: the results for the “%B/B0” value in the test on Antibody 4.2 and in the test on Antibody 4.1 were 94.38% and 95.23%, respectively.
As to (-)-CP 55,940, the “%B/B0” value in the test with Antibody 4.2 was 97.23%; in the test on Antibody 4.1, 91.26%; in test [1] it was “greater than 80%”.

Usually IC50 stands for the concentration needed to halve the response being measured.
